Laboratory results as given in the NIST ThermoML archive (doi:10.1016/j.fluid.2013.11.030).
± gives the expanded uncertainty stated by the source.

Settings: Liquid, Ebulliometric method (Recirculating still)

Question: With `CCCCCCBr` [1-bromohexane] as the compound, how does the “vapor or sublimation pressure” value (428.5 K) read?
Answer: 101.33 ± 1.5 kPa

Question: With `Cn1ccnc1` [1-methylimidazole] as the compound, how does the “vapor or sublimation pressure” value (471.6 K) read?
Answer: 101.33 ± 1.4 kPa

Question: For `CC(C)=O` [acetone], which “vapor or sublimation pressure” value (329.3 K) is on record?
Answer: 101.33 ± 1.5 kPa
